In article PMC8908738 (2022):

Columns and labels:
[1] = tested on: 5'ATP aptamer-bridge (DNA, aptamer) CTAGCGAGCGAACTTTACCTGGGGGAGTATTGCGGAGGAAGGT; experiment: CD of origami-AuNR probe, single concentration; settings: 5 mM Mg2+, PBS, room temperature, overnight, up to 1 mM
[2] = tested on: 5'glucose aptamer-bridge (DNA, aptamer) CTAGCGAGCGAACTTTACGACCGTGTGTGTTGCTCTGTAACAGTGTCCATTGTCGT; experiment: CD of origami-AuNR probe, single concentration; settings: 5 mM Mg2+, PBS, room temperature, overnight, up to 100 mM fructose, displaced 5' strand n = 10
[3] = tested on: 5'ATP aptamer-bridge (DNA, aptamer) CTAGCGAGCGAACTTTACCTGGGGGAGTATTGCGGAGGAAGGT; experiment: CD of origami-AuNR probe, competitive hybridization, complementary strand length varied; settings: 5 mM Mg2+, PBS, room temperature, overnight, 1 mM ATP, displaced 5'ATPCS9-12, R^2 0.96
[4] = tested on: 5'ATP aptamer-bridge (DNA, aptamer) CTAGCGAGCGAACTTTACCTGGGGGAGTATTGCGGAGGAAGGT; experiment: CD of origami-AuNR probe, competitive hybridization, ATP concentration varied; settings: 5 mM Mg2+, PBS, room temperature, overnight, ATP 1 μM to 1 mM, displaced 5'ATPCS9 (n = 9)
[5] = tested on: 5'glucose aptamer-bridge (DNA, aptamer) CTAGCGAGCGAACTTTACGACCGTGTGTGTTGCTCTGTAACAGTGTCCATTGTCGT; experiment: CD of origami-AuNR probe, competitive hybridization, complementary strand length varied; settings: 5 mM Mg2+, PBS, room temperature, overnight, 100 mM glucose, displaced 5'gluCS8-12, R^2 0.99

SMILES: Nc1nc2c(ncn2[C@@H]2O[C@H](COP(=O)(O)OP(=O)(O)OP(=O)(O)O)[C@@H](O)[C@H]2O)c(=O)[nH]1
- binding ([1]; displaced 5'ATPCS9, CD change 3.6% (ATP 53.7%)): no

SMILES: Nc1ccn([C@@H]2O[C@H](COP(=O)(O)OP(=O)(O)OP(=O)(O)O)[C@@H](O)[C@H]2O)c(=O)n1
- binding ([1]; displaced 5'ATPCS9, CD change 2.1% (ATP 53.7%)): no

SMILES: OCC1(O)OC[C@@H](O)[C@@H](O)[C@@H]1O (stereo partly drawn)
- binding [2]: no

SMILES: Nc1ncnc2c1ncn2[C@@H]1O[C@H](COP(=O)(O)OP(=O)(O)OP(=O)(O)O)[C@@H](O)[C@H]1O
- KD2^ATP [3]: 5.71 ± 0.865 µM
- KD2^ATP [4]: 4.54 ± 0.580 µM

SMILES: OC[C@H]1OC(O)[C@H](O)[C@@H](O)[C@@H]1O (stereo partly drawn)
- KD2^glu [5]: 5.57 ± 0.436 mM
